According to patent US20040086535A1, “Novel antiviral acitivities of primate theta defensins and mammalian cathelicidins” (priority 2001, published 2004):
Read-outs that look alike come from different tables or passages of the source. No end group written: not given here.

Tests used:
[1] = tested on: HIV (pNL4-3 strain) in HeLa 37 cells; type: cell-based; details: for anti-retroviral activity of carboxy-terminal peptides (qualitative): HIV, 8 μg/ml, 40 h (FIG. 3B), preliminary studies; for anti-viral activity against HIV, numbers of HIV antigen positive cells (qualitative): theta defensins preincubated 15-30 minutes with HIV, HeLa cells, 40 h
[2] = tested on: EIAV (MA-1 strain) in equine dermal cell line ED; experiment: EIAV infectivity, immunostaining of antigen-expressing cells at 40 h; type: cell-based, equine infectious anemia virus; details: for effect on the EIAV virus titer: theta defensins
[3] = Systemic toxicity in mice; details: systemic dose of 5 mg/kg
[4] = mice, lung instillation of 100 μg
[5] = % helicity (circular dichroism); type: physicochemical; details: for % helicity in Phos. Buffer: phosphate buffer; for % helicity in phosphate buffer + 40% TFE: phosphate buffer + 40% TFE (parenthetical value)
[6] = tested on: herpes viruses and retroviruses
[7] = tested on: adenovirus, a non-enveloped virus; experiment: Adenovirus infectivity; type: cell-based; details: similar concentrations (6-8 μg/ml); data not shown
[8] = mouse, in vivo, 5 mg/kg
herpes simplex 1 (HSV-1) = experiment: HSV-1 plaque formation inhibition, virus preincubated with peptide; type: cell-based, herpes simplex virus 1
[9] = tested on: primary human fibroblasts
EIAV (MA-1) = experiment: Time course of Ov-1 addition against EIAV, antigen immunostaining of monolayers; type: cell-based, equine infectious anemia virus; details: 10 μg/ml
Experimental: Studies with EIAV investigating the mode of action of the Ov class antivirals indicate that the peptides are acting early within the viral life cycle, perhaps acting on the viral particle itself. Ten μg/ml of Ov-1 was added to virus stocks of MA-1 either before, at the time of infection or various times following infection. Virus and peptide was then removed from the media 48 h post infection and the infected cultures were maintained for an additional 5 days to allow spread of any virus that is present within the culture. Monolayers were then immunostained for EIAV antigen expression.

herpes simplex 2 (HSV-2) = experiment: HSV-2 plaque formation inhibition, virus preincubated with peptide; type: cell-based, herpes simplex virus 2
cytomegalovirus (CMV) = experiment: CMV plaque formation / cytopathology in primary human fibroblasts; type: cell-based; details: for CMV plaque formation: virus preincubated 1 h at 37° C., MOI approx. 5, 14 days post infection
vaccinia virus = experiment: Vaccinia virus replication; type: cell-based; details: similar concentrations

HIIKKYGPTILRIIRIIG-NH2 [Ov-6, 18 carboxyl-terminal amino acids of Ov-1]
anti-retroviral activity of carboxy-terminal peptides (qualitative) [1]: did not have appreciable anti-viral activity

GFCRCLCRRGVCRCICTR [RTD-1, rhesus monkey theta defensin]
effect on the EIAV virus titer [2]: no effect

IHIIKKYGPTILRIIRIIG-NH2 [Ov-5, carboxy-terminal 19-mer of Ov-1]
anti-retroviral activity of carboxy-terminal peptides (qualitative) [1]: have anti-retroviral activity

KNLRRIIRKIIHIIKKYG [Ov-2, KNLRRIIRKIIHIIKKYG]
adverse effects [3]: no adverse effects | inflammation, cytokine elevation, blood markers [4]: No imflammation, cytokine elevation or increase in blood markers was detected

KNLRRITRKIIHIIKKYG [Ov-2 (T7)]
% helicity in Phos. Buffer [5]: 8.0% | % helicity in phosphate buffer + 40% TFE [5]: 66.8%

KIIHIIKKYGPTILRIIRIIG-NH2 [Ov-4, carboxy-terminal 21-mer of Ov-1]
anti-retroviral activity of carboxy-terminal peptides (qualitative) [1]: have anti-retroviral activity

LRRIIRKIIHIIKK-NH2 [Ov-3, LRRIIRKIIHIIKK-NH2]
adverse effects [3]: no adverse effects

KNLRRIIRKIIHIIKKYGPTILRIIRIIG-NH2 [Ov-1]
effective LD50 for inhibiting herpes viruses and retroviruses [6]: approximately 3 μg/ml | effect on infectivity of adenovirus [7]: < 10 fold | % helicity in Phos. Buffer [5]: 43.9% | % helicity in phosphate buffer + 40% TFE [5]: 97.9% | adverse effects [8]: no adverse effects | inhibition of HSV-1 plaque formation (herpes simplex 1 (HSV-1); 6 μg/ml peptide): 3-6 fold | inhibition of HSV-1 plaque formation (herpes simplex 1 (HSV-1); 18 μg/ml peptide): approximately 100 fold | effect on the monolayer of primary human fibroblasts [9]: little to no effect | decrease of HIV infectivity ([1]; 6-8 μg/ml peptide): greater than 100 fold | decrease of EIAV infectivity ([2]; 6-8 μg/ml peptide): greater than 100 fold | outcome of culture (qualitative) (EIAV (MA-1); added 30 minutes or later following virus infection): resulted in infection and spread of the virus throughout the monolayer | effectiveness in inhibiting virus replication (EIAV (MA-1); added during preincubation or at the time of infection): 100% | inhibition of HSV-2 plaque formation (herpes simplex 2 (HSV-2); 6 μg/ml peptide): 3-6 fold | inhibition of HSV-2 plaque formation (herpes simplex 2 (HSV-2); 18 μg/ml peptide): approximately 100 fold | CMV plaque formation (cytomegalovirus (CMV); 5 μg/ml): Plaque formation and accompanying monolayer disintegration can be observed | CMV plaque formation (cytomegalovirus (CMV); 20 μg/ml): No plaque formation was detected | CMV plaque formation (qualitative) (cytomegalovirus (CMV); 14 days): reduced plaque formation

GICRCICGRGICRCICGR [HTD-1, synthetic peptide specified from human pseudogene, human theta defensin 1]
enhancement of IC50 by circularization ([1]; oxidized, circularized versus oxidized form): about 10 fold | anti-viral activity against HIV, numbers of HIV antigen positive cells (qualitative) [1]: greatest anti-viral activity | anti-viral activity against HIV, numbers of HIV antigen positive cells (qualitative) ([1]; listed as human theta defensin-1): most effective | effect on the EIAV virus titer [2]: no effect

KNLRRIIRKGIHIIKKYG [Ov-2 (G10)]
% helicity in Phos. Buffer [5]: 7.4% | % helicity in phosphate buffer + 40% TFE [5]: 50.4%

ISRLAGLLRKGGEKIGEKLKKIGQKIKNFFQKLVPQPEQ (listed as Mus musculus) [mCramp, a murine cathelicidin]
inhibitory effect on vaccinia virus replication (vaccinia virus): no inhibitory effect | reduction of herpes simplex 1 replication (herpes simplex 1 (HSV-1)): approximately 75% | infectivity of HIV (qualitative) [1]: consistently reduced the infectivity | infectivity of EIAV (qualitative) [2]: consistently reduced the infectivity | reduction of herpes simplex 2 replication (herpes simplex 2 (HSV-2)): approximately 75%

GVCRCLCRRGVCRCLCRR [RTD-3, rhesus monkey theta defensin]
anti-viral activity against HIV, numbers of HIV antigen positive cells (qualitative) [1]: greatest anti-viral activity | anti-viral activity against HIV, numbers of HIV antigen positive cells (qualitative) ([1]; listed as rhesus theta defensin-3): most effective
